Data published in patent publication US10556865B2, “Synergistic herbicidal composition containing certain pyridine or pyrimidine carboxylic acids and certain cereal and rice herbicides” (Dow AgroSciences, LLC, priority 2007, dated 2020).
Like-named read-outs stand apart in the source and are kept apart here.

Columns and labels:
Format in all cases: in vivo
[1] = tested on: Leptochloa chinensis (L.) NEES (LEFCH); test: Herbicidal mixtures for weed control in transplanted paddy rice (in-water application, visual % injury)
How it was run: (§1)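 Flooded pots of puddled soil (54 percent sand, pH about 7.3 to 7.8) held weeds grown 4-14 days at about 29° C day, 26° C night. The herbicides, alone and in mixtures, were injected into the paddy water, then plants were scored visually for percent injury after 3 weeks.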

[2] = tested on: Marsilea crenata PRESL (MASCR); test: as above
How it was run: as §1

[3] = tested on: wild oats (Avena fatua L; AVEFA); test: Postemergence herbicidal activity of mixtures in cereal crops (greenhouse, visual injury)
How it was run: (§2)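 Plants at second-third true leaf stage sprayed postemergence at 187 L/ha with compound and second cereal herbicide alone and combined; solvent blank controls. Visual injury scored 0-100% versus controls after 20-22 days; expected mixture effects by Colby's equation.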

[4] = tested on: windgrass (Apera spica-venti L; APESV); test: as above; conditions: for pest or weed control at 35 g/ha / pest or weed control at 70 g/ha / pest or weed control at 140 g/ha / pest or weed control at 8.75 g/ha / pest or weed control at 17.5 g/ha: Apera spica-venti, post-emergence, read-out: APESV Ob
How it was run: as §2

[5] = Quinclorac 140 g/ha alone (Compound A Methyl half)
[6] = Quinclorac 140 g/ha alone (Compound A TEA half)
[7] = Compound A Methyl 17.5 g/ha alone
[8] = Compound A Methyl 35 g/ha alone

O=C(O)c1c(Cl)ccc2cc(Cl)cnc12 [Quinclorac]
0%: % Injury LEFCH Ob [1, 5] | % Injury LEFCH Ob [1, 6] | % Injury MASCR Ob [2, 5] | % Injury MASCR Ob [2, 6]

COc1c(Cl)ccc(-c2cc(N)c(Cl)c(C(=O)O)n2)c1F [Compound A TEA, 4-amino-3-chloro-6-(4-chloro-2-fluoro-3-methoxyphenyl)pyridine-2-carboxylic acid]
8%: AVEFA Ob ([3]; 140 g/ha, Table 17) | pest or weed control at 35 g/ha ([4]; 35 g/ha, Table 14) | pest or weed control at 35 g/ha ([4]; 35 g/ha, Table 18)
3%: AVEFA Ob ([3]; 70 g/ha, Table 17) | pest or weed control at 35 g/ha ([4]; 35 g/ha, Table 15) | pest or weed control at 35 g/ha ([4]; 35 g/ha, Table 16) | pest or weed control at 35 g/ha ([4]; 35 g/ha, Table 17)
0%: AVEFA Ob ([3]; 35 g/ha, Table 14) | AVEFA Ob ([3]; 35 g/ha, Table 17) | AVEFA Ob ([3]; 35 g/ha, Table 18) | AVEFA Ob ([3]; 70 g/ha, Table 14) | AVEFA Ob ([3]; 70 g/ha, Table 18) | AVEFA Ob ([3]; 140 g/ha, Table 14) | AVEFA Ob ([3]; 140 g/ha, Table 18) | pest or weed control at 70 g/ha ([4]; 70 g/ha, Table 15) | pest or weed control at 70 g/ha ([4]; 70 g/ha, Table 16) | pest or weed control at 70 g/ha ([4]; 70 g/ha, Table 17)
15%: pest or weed control at 140 g/ha ([4]; Table 14) | pest or weed control at 140 g/ha ([4]; Table 18) | % Injury LEFCH Ob ([1]; Compound A TEA 35 g/ha alone)
60%: % Injury MASCR Ob ([2]; Compound A TEA 35 g/ha alone)
13%: pest or weed control at 70 g/ha ([4]; 70 g/ha, Table 14) | pest or weed control at 70 g/ha ([4]; 70 g/ha, Table 18)
80%: % Injury Ob ([1]; 35 g/ha alone)
10%: % Injury LEFCH Ob ([1]; Compound A TEA 17.5 g/ha alone)
4%: pest or weed control at 140 g/ha ([4]; Table 15) | pest or weed control at 140 g/ha ([4]; Table 16) | pest or weed control at 140 g/ha ([4]; Table 17)
99%: % Injury Ob ([1]; 70 g/ha alone)

COC(=O)c1nc(-c2ccc(Cl)c(OC)c2F)nc(N)c1Cl [Compound B Methyl, 6-amino-5-chloro-2-(4-chloro-2-fluoro-3-methoxyphenyl)pyrimidine-4-carboxylic acid methyl ester]
0%: AVEFA Ob ([3]; 8.75 g/ha) | AVEFA Ob ([3]; 8.75 g/ha, Table 20) | AVEFA Ob ([3]; 17.5 g/ha) | AVEFA Ob ([3]; 17.5 g/ha, Table 20) | AVEFA Ob ([3]; 35 g/ha) | AVEFA Ob ([3]; 35 g/ha, Table 20) | AVEFA Ob ([3]; 70 g/ha) | AVEFA Ob ([3]; 70 g/ha, Table 20) | APESV Ob ([4]; 8.75 g/ha) | APESV Ob ([4]; 17.5 g/ha) | APESV Ob ([4]; 35 g/ha) | APESV Ob ([4]; 70 g/ha) | pest or weed control at 8.75 g/ha ([4]; 8.75 g/ha, Table 20) | pest or weed control at 8.75 g/ha ([4]; 8.75 g/ha, Table 22) | pest or weed control at 17.5 g/ha ([4]; 17.5 g/ha, Table 20) | pest or weed control at 17.5 g/ha ([4]; 17.5 g/ha, Table 22) | pest or weed control at 35 g/ha ([4]; 35 g/ha, Table 20) | pest or weed control at 35 g/ha ([4]; 35 g/ha, Table 22) | pest or weed control at 70 g/ha ([4]; 70 g/ha, Table 20) | pest or weed control at 70 g/ha ([4]; 70 g/ha, Table 22)

COC(=O)c1nc(-c2ccc(Cl)c(OC)c2F)cc(N)c1Cl [Compound A Methyl, 4-amino-3-chloro-6-(4-chloro-2-fluoro-3-methoxyphenyl)pyridine-2-carboxylic acid methyl ester]
10%: pest or weed control at 35 g/ha ([4]; 35 g/ha, Table 3) | pest or weed control at 35 g/ha ([4]; 35 g/ha, Table 4) | pest or weed control at 35 g/ha ([4]; 35 g/ha, Table 5) | pest or weed control at 70 g/ha ([4]; 70 g/ha, Table 3) | pest or weed control at 70 g/ha ([4]; 70 g/ha, Table 4) | pest or weed control at 70 g/ha ([4]; 70 g/ha, Table 5) | % Injury LEFCH Ob [1, 7]
20%: pest or weed control at 17.5 g/ha ([4]; 17.5 g/ha, Table 1) | pest or weed control at 35 g/ha ([4]; 35 g/ha, Table 1) | % Injury LEFCH Ob [1, 8]
40%: AVEFA Ob ([3]; 35 g/ha, Table 3) | AVEFA Ob ([3]; 35 g/ha, Table 4) | AVEFA Ob ([3]; 35 g/ha, Table 5)
35%: AVEFA Ob ([3]; 70 g/ha, Table 1)
0%: AVEFA Ob ([3]; 17.5 g/ha, Table 4) | AVEFA Ob ([3]; 17.5 g/ha, Table 5) | pest or weed control at 17.5 g/ha ([4]; 17.5 g/ha, Table 4) | pest or weed control at 17.5 g/ha ([4]; 17.5 g/ha, Table 5) | % Injury Ob ([1]; 8.75 g/ha alone) | % Injury Ob ([1]; 17.5 g/ha alone) | % Injury Ob ([1]; 35 g/ha alone) | % Injury MASCR Ob [2, 7]
50%: % Injury MASCR Ob [2, 8]
30%: AVEFA Ob ([3]; 17.5 g/ha, Table 1) | AVEFA Ob ([3]; 35 g/ha, Table 1) | pest or weed control at 70 g/ha ([4]; 70 g/ha, Table 1)
45%: AVEFA Ob ([3]; 70 g/ha, Table 3) | AVEFA Ob ([3]; 70 g/ha, Table 4) | AVEFA Ob ([3]; 70 g/ha, Table 5)
